In patent US12180159B2, “Activators of the unfolded protein response” (The Board of Trustees of the University of Illinois, priority 2018, dated 2024):

Assays:
[1] = tested on: TDG cells (T47DERαD538G); assay: Trypan Blue exclusion cell death assay, TDG cells; assay type: cell-based, human; conditions: dose response, 24 hours, TDG-Luc cells
Source text: TRYPAN BLUE: For decades, viable cells have been measured by their ability to exclude the dye Trypan Blue. […] Dead cells, which have lost membrane integrity, take up the dye and are blue. Thus, the percentage of dead cells is the percentage of cells that are Trypan Blue positive out of the total cell population. Quantitative assessment of Trypan Blue uptake uses a cell counter from Fisher. Since the assay is instrument based, there is no observer bias in determining the percentage of Trypan Blue positive cells.
TRYPAN BLUE ASSAYS: Assays are performed on cells in 6 well plates: 300,000 cells are plated in each well of a 6 well plate in 3 ml of medium. After 24 hours, the DMSO vehicle or the indicated compound is added (in 1000th of the vol.) The cells incubated for an additional 24 hours, and then harvested in 0.25 ml of trypsin, followed after harvest by 0.75 ml of medium. The cells are spun down and resuspended in 100-200 μl of medium left that is over the cell pellet (resuspend cells by pipetting up and down a few times). Add 10 μl to 10 μl of trypan blue. Then 10 μl is inserted into the counting slide. After inserting the slide into the Fisher TC20 counting is automatic (these many cells are needed because an accurate ratio of Trypan Blue positive to Trypan Blue negative cells requires about 200 cells in the field the instrument counts).
The Trypan Blue cell death assay was used to evaluate the ability of the active enantiomer of C-105 [(−)-105] to kill ERα positive TDG-Luc cells. For all studies, 300,000 TDG-Luc cells/well in 10% FBS were plated in a 6 well plate in triplicate. 24 hours after plating, the indicated concentrations the active enantiomer of (−)-105, or BHPI (top) ICI, or OHT (Lower left) or (+)-105 (lower right) were added. After 24 hours, the cells were harvested, and the % dead cells was determined by automated Trypan Blue exclusion using the Countess II automated hemocytometer. Percentage of viable cells was calculated by doing 100−(Cell Death %). (n=3±SEM).
TDG cells were incubated for 24 hours with 75 nM of BHPI or 75 nM of each of the indicated test compounds: 4, 6 and (±)-105 (enantiomers not separated). Cell death was determined using the instrument-based Trypan Blue exclusion assay. Structures are in the Synthesis section. […] (n=3±SEM).

[2] = tested on: TYS-Luc cells; assay: Long-term cell culture experiment, TYS-Luc cells (MTS); assay type: cell-based, human; conditions: 2 weeks 1 μM, then 4 weeks without drug
Experimental: To simulate the effect of several weeks of treatment of a tumor in a mouse xenograft, long-term cell culture experiments were performed. TYS-Luc cells (T47DERαY537S-Luc cells; ERαY537S is the most lethal ERα mutation seen in metastatic breast cancer) were plated at 4,000 cells/well in 96 well plates. […] After 2 weeks (medium change every 2 days) cell number was determined using MTS and a standard curve of absorbance versus cell number for TYS-Luc cells. Notes: (i) Bars denote the BHPI and (−)-105 arms of the experiment. No drug is present during regrow. […] This allows any surviving cells to regrow. After 4 weeks the cells were assayed using MTS. […] (Note: Visual inspection of the wells confirmed that there were no cells in the well treated for 2 weeks with active (−)-105.) To test whether the cells that regrew after BHPI treatment were resistant to BHPI they were re-treated for another cycle (BHPI Retreat) and shown to retain sensitivity to BHPI killing. (n=8 biological replicates±SEM.

[3] = tested on: partially BHPI-resistant T47D clones 1, 3, 8, and 11; assay: Growth of partially BHPI-resistant T47D clones (MTS); assay type: cell-based, human; conditions: 100 nM and 1 μM, 4 days
Experimental: ERα containing T47D human breast cancer cells able to survive in 1 μM BHPI were selected by clonal outgrowth. The effect of 100 nM and 1 μM BHPI and (−)-105 on growth of the (BHPI-sensitive) parental T47D cells and partially BHPI-resistant T47D clones 1, 3, 8, and 11 was evaluated. 4,000 cells/well were plated. Cell number was determined by MTS assay from a standard curve of absorbance versus cell number. […] Thus, in 4 days (−)-105 killed some, but not all, of the resistant cells.

[4] = tested on: D538G mutant tumors (TDG cell line); assay: TDG-luc orthotopic tumor model; assay type: in vivo, mouse
Source text: FIG. 41. SERK-F6 eradicates mutant ERα primary and metastatic breast cancer. a-c, TYS-luc. orthotopic tumors were established in NSG ovariectomized mice (no E2 pellet, 60 days to establish) and dosed daily as indicated (n=5-6). b, representative examples of bioluminescence images of SERK-F6 treated mice (7 days). d,e, TDG-luc. orthotopic tumors were established in NSG ovariectomized mice (no E2 pellet, 120 days to establish) and dosed daily as indicated (n=4-5). e, Bioluminescence image of SERK-F6 treated mouse with TDG-luc. tumor burden after 7 days. f, MYS-luc. orthotopic tumors were established in NSG ovariectomized mice (no E2 pellet, 45 days to establish) and dosed daily as indicated (n=4-5). g, MDG-luc. orthotopic tumors were established in NSG ovariectomized mice (no E2 pellet, 45 days to establish) and dosed daily as indicated (n=4-5). h, Metastatic model with MDG-luc. cells injected into the tail-vein of NSG ovariectomized mice (no E2 pellet, 1.5 months to establish) and mice were dosed daily as indicated (n=4-5).
FIG. 4A illustrates how IC50's for cell death were determined. 4B tests the ability BHPI, (−)-105, and 01-15 to kill. […] Large orthotopic breast tumors of TYD-Luc cells (T47DERαD538G-luciferase human breast cancer cells) were allowed to form for 4 months in immune suppressed NSG mice. […]

`O=C1Nc2c(C(F)(F)F)cccc2C1(c1ccc(O)cc1)c1ccc(OC(F)(F)F)cc1` (single isomer, unassigned; (-)) [(−)-105, 3-(4-hydroxyphenyl)-3-(4-(trifluoromethoxy)phenyl)-7-(trifluoromethyl)indolin-2-one] was tested, and the “killing of TDG-Luc cells” value [1] was “superior to BHPI”, the “regrowth of cells after treatment” value [2] was “no regrowth” and the “growth of the BHPI-resistant clones” value [3] was “completely blocked the growth of the resistant clones”. The “efficacy when administered orally” value ([4]; 40 mg/kg oral gavage, 3 days) was “effective when administered orally” and the “effect on D538G mutant tumors” value ([4]; mouse, in vivo) was “destruction of D538G mutant tumors”.
